Assay results: US9827228B2, “Opioid receptor modulators and use thereof” (priority 2015, dated 2017)
pEC50: −log10 of the molar value. Like-named read-outs stand apart in the source and are kept apart here.

Target: T1, hMOR (Homo sapiens, UniProt P35372)
T1 construct: host or cells: CHO-K1
Assay: cell-based
Type: cell-based
Conditions: for AUC: AUC of [Ca2+]i fluorescence
Method: Chinese hamster ovary (CHO)-K1 cells expressing hMOR and Gα15 (CHO-K1/MOR/Gα15) were cultured in F12 medium (GIBCO) supplemented with 10 μg/mL Hygromycin B (Invivogen), 20 μg/mL Zeocin (Invivogen) and P/S/F (100 units/mL penicillin, 100 μg/mL streptomycin, 10% fetal bovine serum). The cultures were incubated at 37° C. in a humidified 5% CO2 incubator.
One day prior to running the assay, CORNING® black 96-well assay plates having a clear flat bottom were coated with a 0.1 mg/mL Poly-L-Lysine solution. CHO-K1/MOR/Gα15 cells were suspended in F12 medium and plated at a density of about 8×10^4 cells/well in 200 μL medium. Cells were incubated under a humidified atmosphere of 10% CO2 at 37° C. overnight to reach an 80-90% confluent cell monolayer before the assay. On the day of the assay, 150 μL medium was removed from each well of the plates. To each well were added FLIPR® calcium assay reagents (Molecular Devices Corporation, Sunnyvale, Calif., USA; 50 μL) dissolved in 1× assay buffer (HBSS: KCl 5 mM, KH2PO4 0.3 mM, NaCl 138 mM, NaHCO3 4 mM, Na2HPO4 0.3 mM, d-glucose 5.6 mM, with additional 20 mM HEPES and […], pH 7.4) and 2.5 mM probenecid. After incubation at 37° C. for 1 hour, a test compound, alone or together with naloxone (a MOR antagonist), was also added to each well. Using a FlexStationlll instrument (Molecular Devices Corp.), increments of the [Ca^2+]i fluorescence after robotic injection of the cell suspension were monitored at 1.52 s intervals using the excitation wavelength of 485 nm and the emission wavelength of 525 nm. The [Ca^2+]i fluorescence was measured up to 90 s after the injection. The fluorescence intensity from 6 to 12 wells of cells were averaged and the relative amount of [Ca^2+]i release was determined by integrating the AUC of the [Ca^2+]i fluorescence averages.
A CHO-K1 cell line expressing MOR and Gα15 (GenScript) was used to set up a sensitive high-throughput screen (HTS) system. […] The HTS was performed in the absence or presence of naloxone (an opioid antagonist; 20 nM), to identify AAMs.

[1] = combined with naloxone, CHO-K1/MOR/Gα15 cells
[2] = combined with naloxone, CHO-K1/MOR/Gα15 cells, read-out: EC50
[3] = EC50, combined with naloxone, CHO-K1/MOR/Gα15 cells

T1 sequence (P35372 whole entry): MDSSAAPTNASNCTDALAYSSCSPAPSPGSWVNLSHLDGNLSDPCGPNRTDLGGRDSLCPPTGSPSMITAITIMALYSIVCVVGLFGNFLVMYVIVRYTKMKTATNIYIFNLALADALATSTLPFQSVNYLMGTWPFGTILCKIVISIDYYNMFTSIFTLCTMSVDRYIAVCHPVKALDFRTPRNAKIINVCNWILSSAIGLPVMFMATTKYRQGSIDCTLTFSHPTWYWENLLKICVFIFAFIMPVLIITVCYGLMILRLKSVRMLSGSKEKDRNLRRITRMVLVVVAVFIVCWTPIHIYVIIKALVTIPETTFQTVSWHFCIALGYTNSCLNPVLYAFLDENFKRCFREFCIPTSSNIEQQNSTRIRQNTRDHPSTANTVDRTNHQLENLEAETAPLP

SMILES: Cc1nc(C)c(-c2csc(Nc3c(C(C)C)cccc3C(C)C)n2)s1 [Compound 23, N-(2,6-Diisopropylphenyl)-2′,4′-dimethyl-4,5′-bi-1,3-thiazol-2-amine]
- AUC [1]: − (−: <5000)
- pEC50 [2]: < 5.00

SMILES: CCc1ccc(C)nc1Nc1nc(-c2sc(C)nc2C)cs1 [Compound 82, N-(3-Ethyl-6-methyl-2-pyridinyl)-2′,4′-dimethyl-4,5′-bi-1,3-thiazol-2-amine]
- AUC [1]: − (−: <5000)
- pEC50 [2]: < 5.00

SMILES: Cc1nc(C)c(-c2csc(Nc3ccc(C(=O)O)cc3C)n2)s1 [Compound 57, 4-[(2′,4′-Dimethyl-4,5′-bi-1,3-thiazol-2-yl)amino]-3-methylbenzoic acid]
- AUC [1]: − (−: <5000)
- pEC50 [2]: < 5.00

SMILES: CCc1ccccc1Nc1nc(-c2ccc(C)cc2)cs1 [Compound 121, N-(2-Ethylphenyl)-4-(4-methylphenyl)-1,3-thiazol-2-amine]
- AUC [1]: − (−: <5000)
- pEC50 [2]: < 5.00

SMILES: Cc1nc(C)c(-c2csc(Nc3ccccc3CO)n2)s1 [Compound 62, {2-[(2′,4′-Dimethyl-4,5′-bi-1,3-thiazol-2-yl)amino]phenyl}methanol]
- AUC [1]: − (−: <5000)
- pEC50 [2]: < 5.00

SMILES: CCc1ccccc1Nc1ncc(-c2oc(C)nc2C)o1 [Compound 109, 5-(2,4-Dimethyl-1,3-oxazol-5-yl)-N-(2-ethylphenyl)-1,3-oxazol-2-amine]
- AUC [1]: − (−: <5000)
- pEC50 [2]: < 5.00

SMILES: CC(=O)c1ccc(Nc2nc(-c3sc(C)nc3C)cs2)cc1 [Compound 44, 1-{4-[(2′,4′-Dimethyl-4,5′-bi-1,3-thiazol-2-yl)amino]phenyl}ethanone]
- AUC [1]: − (−: <5000)
- pEC50 [3]: < 5.00

SMILES: COc1ccc(C)c(Nc2nc(-c3sc(C)nc3C)cs2)c1 [Compound 12, N-(5-Methoxy-2-methylphenyl)-2′,4′-dimethyl-4,5′-bi-1,3-thiazol-2-amine]
- AUC [1]: − (−: <5000)
- pEC50 [2]: < 5.00

SMILES: CCc1ccccc1Nc1nc2c(s1)Cc1ccccc1-2 [Compound 127, N-(2-Ethylphenyl)-8H-indeno[1,2-d][1,3]thiazol-2-amine]
- AUC [1]: − (−: <5000)
- pEC50 [2]: < 5.00

SMILES: Cc1cc(C)cc(Nc2nc(-c3sc(C)nc3C)cs2)c1 [Compound 39, N-(3,5-Dimethylphenyl)-2′,4′-dimethyl-4,5′-bi-1,3-thiazol-2-amine]
- AUC [1]: − (−: <5000)
- pEC50 [2]: < 5.00

SMILES: Cc1nc(C)c(-c2csc(Nc3c(C)cc(Cl)cc3C)n2)s1 [Compound 51, N-(4-Chloro-2,6-dimethylphenyl)-2′,4′-dimethyl-4,5′-bi-1,3-thiazol-2-amine]
- AUC [1]: − (−: <5000)
- pEC50 [2]: < 5.00

SMILES: Cc1nc(C)c(-c2csc(Nc3cccc(F)c3C)n2)s1 [Compound 21, N-(3-Fluoro-2-methylphenyl)-2′,4′-dimethyl-4,5′-bi-1,3-thiazol-2-amine]
- AUC [1]: + (+: >5000)
- pEC50 [2]: < 5.00

SMILES: Cc1nc(C)c(-c2csc(Nc3ccc(Br)cc3C)n2)s1 [Compound 42, N-(4-Bromo-2-methylphenyl)-2′,4′-dimethyl-4,5′-bi-1,3-thiazol-2-amine]
- AUC [1]: − (−: <5000)
- pEC50 [2]: < 5.00

SMILES: Cc1nc(C)c(-c2csc(Nc3cc(Cl)ccc3C)n2)s1 [Compound 15, N-(5-Chloro-2-methylphenyl)-2′,4′-dimethyl-4,5′-bi-1,3-thiazol-2-amine]
- AUC [1]: − (−: <5000)
- pEC50 [2]: < 5.00

SMILES: Cc1nc(C)c(-c2csc(Nc3ccc(F)cc3C)n2)s1 [Compound 31, N-(4-Fluoro-2-methylphenyl)-2′,4′-dimethyl-4,5′-bi-1,3-thiazol-2-amine]
- AUC [1]: − (−: <5000)
- pEC50 [2]: < 5.00

SMILES: Cc1ccc(Nc2nc(-c3oc(C)nc3C)cs2)c(C)c1 [Compound 105, 4-(2,4-Dimethyl-1,3-oxazol-5-yl)-N-(2,4-dimethylphenyl)-1,3-thiazol-2-amine]
- AUC [1]: + (+: >5000)
- pEC50 [2]: < 5.00

SMILES: Cc1nc(C)c(-c2csc(Nc3ccc(N(C)C)cc3C)n2)s1 [Compound 75, N^1-(2′,4′-Dimethyl-4,5′-bi-1,3-thiazol-2-yl)-N^4,N^4,2-trimethyl-1,4-benzenediamine]
- AUC [1]: − (−: <5000)
- pEC50 [2]: < 5.00

SMILES: Cc1ccc(C)c(Nc2nc(-c3sc(C)nc3C)cs2)c1 [Compound 25, N-(2,5-Dimethylphenyl)-2′,4′-dimethyl-4,5′-bi-1,3-thiazol-2-amine]
- AUC [1]: − (−: <5000)
- pEC50 [2]: < 5.00

SMILES: CCc1ccccc1Nc1nc(-c2sc(C)nc2C)c(C)s1 [Compound 98, N-(2-Ethylphenyl)-2′,4′,5-trimethyl-4,5′-bi-1,3-thiazol-2-amine]
- AUC [1]: − (−: <5000)
- pEC50 [2]: < 5.00

SMILES: Cc1nc(C)c(-c2csc(Nc3cccc(C(F)(F)F)c3C)n2)s1 [Compound 87, 2′,4′-Dimethyl-N-[2-methyl-3-(trifluoromethyl)phenyl]-4,5′-bi-1,3-thiazol-2-amine]
- AUC [1]: − (−: <5000)
- pEC50 [2]: < 5.00

SMILES: CCc1ccccc1Nc1nc(-c2oc(C)nc2C)cs1 [Compound 102, 4-(2,4-Dimethyl-1,3-oxazol-5-yl)-N-(2-ethylphenyl)-1,3-thiazol-2-amine]
- AUC [1]: + (+: >5000)
- pEC50 (EC50, combined with naloxone): > 5.00
- pEC50 [3]: 5.00 to 5.52

SMILES: CCc1ccccc1Nc1nc(-c2cccs2)cs1 [Compound 124, N-(2-Ethylphenyl)-4-(2-thiophenyl)-1,3-thiazol-2-amine]
- AUC [1]: − (−: <5000)
- pEC50 [2]: < 5.00

SMILES: Cc1nc(C)c(-c2csc(Nc3cccc(C)c3C)n2)s1 [Compound 53, N-(2,3-Dimethylphenyl)-2′,4′-dimethyl-4,5′-bi-1,3-thiazol-2-amine]
- AUC [1]: + (+: >5000)
- pEC50 [2]: < 5.00

SMILES: CCc1ccccc1Nc1nc(C)cs1 [Compound 132, N-(2-Ethylphenyl)-4-methyl-1,3-thiazol-2-amine]
- AUC [1]: − (−: <5000)
- pEC50 [2]: < 5.00

SMILES: COc1cc(Nc2nc(-c3sc(C)nc3C)cs2)cc(OC)c1OC [Compound 37, 2′,4′-Dimethyl-N-(3,4,5-trimethoxyphenyl)-4,5′-bi-1,3-thiazol-2-amine]
- AUC [1]: − (−: <5000)
- pEC50 [2]: < 5.00

SMILES: Cc1nc(C)c(-c2csc(Nc3cc(F)ccc3C)n2)s1 [Compound 10, N-(5-Fluoro-2-methylphenyl)-2′,4′-dimethyl-4,5′-bi-1,3-thiazol-2-amine]
- AUC [1]: − (−: <5000)
- pEC50 [2]: < 5.00

SMILES: CCc1ccccc1Nc1nc(-c2cc(-c3ccccc3)no2)cs1 [Compound 129, N-(2-Ethylphenyl)-4-(3-phenyl-1,2-oxazol-5-yl)-1,3-thiazol-2-amine]
- AUC [1]: − (−: <5000)
- pEC50 [2]: < 5.00

SMILES: COc1ccc(Nc2nc(-c3sc(C)nc3C)cs2)c(C)c1 [Compound 35, N-(4-Methoxy-2-methylphenyl)-2′,4′-dimethyl-4,5′-bi-1,3-thiazol-2-amine]
- AUC [1]: + (+: >5000)
- pEC50 [2]: < 5.00

SMILES: Cc1ccc(Nc2nc(-c3sc(C)nc3C)cs2)c(C)c1 [Compound 29, N-(2,4-Dimethylphenyl)-2′,4′-dimethyl-4,5′-bi-1,3-thiazol-2-amine]
- AUC [1]: + (+: >5000)
- pEC50 (EC50, combined with naloxone): > 5.00
- pEC50 [3]: 5.00 to 5.52

SMILES: Cc1nc(C)c(-c2csc(Nc3ccccc3-n3cccc3)n2)s1 [Compound 72, 2′,4′-Dimethyl-N-[2-(1H-pyrrol-1-yl)phenyl]-4,5′-bi-1,3-thiazol-2-amine]
- AUC [1]: − (−: <5000)
- pEC50 [2]: < 5.00
